Usually IC50 stands for the concentration that inhibits the measured activity by half. Low readings indicate greater potency in that assay, high ones weaker potency in that assay. Usually Inhibition stands for how much of the control response was suppressed. A higher Inhibition goes with a strong effect.

The test system of assay [1] is Trypanosoma brucei. Put plainly: (§1) Inhibition of growth of Trypanosoma uM concentration. The format is functional, organism-based.
For assay [2], the system named is Vero. The assay is described as follows: Cytotoxic activity of compound against Vero cell line; No toxicity. The format is functional, cell-based. The note with it: Chlorocebus sabaeus.
In assay [3] the test system is E6SM. The assay is described as follows: Cytotoxic activity of compound against E6SM cell line; No toxicity. The note with it: Homo sapiens. The format is functional, cell-based.
Assay [4] has as its system HEL. The assay is described as follows: Cytotoxic activity of compound against HEL cell line; No toxicity. The format is functional, cell-based. The settings on record: Homo sapiens.
Assay [5] has as its system Trypanosoma brucei. The description is as §1. The format is functional, organism-based. This is another data set of the same source.
Assay [6] concerns Trypanosoma brucei. The assay is described as §1. The format is functional, organism-based. The source holds these as a separate data set.
Assay [7] has as its system HeLa. Put plainly: Cytotoxic activity of compound against HeLa cell line; No toxicity. The format is functional, cell-based. The settings on record: Homo sapiens.
For assay [8], the system named is Trypanosoma brucei. The assay is described as follows: (§2) Inhibition of growth of Trypanosoma uM). The format is functional, organism-based.
Assay [9] relates to Trypanosoma brucei. The assay is described as §2. The format is functional, organism-based. The source holds these as a separate data set.
In assay [10] the test system is Trypanosoma brucei. Described as §2. Format: functional, organism-based. The source holds these as a separate data set.
The test system of assay [11] is Trypanosoma brucei. The assay is described as §2. The format is functional, organism-based. This is another data set of the same source.
Assay [12] deals with Trypanosoma brucei. The assay is described as §1. Format: functional, organism-based. The source holds these as a separate data set.
The subject of assay [13] is Trypanosoma brucei. The assay is described as §1. The format is functional.
Assay [14] has as its system Trypanosoma brucei. The description is as §1. The format is functional. This is another data set of the same source.

The source made the active and inactive calls. The calls are words filed in the database; no cut-off is given here.

Regarding `C[C@H]1C[C@@H](n2ncc3c(N)ncnc32)[C@H](O)[C@@H]1O`, the concentration for half-maximal inhibition (IC50) was 12.2 µM in assay [1], 16.8 µM in assay [5] and 14 µM in assay [6]. For the same compound, the Cytotoxic activity result in assay [2], in assay [3], in assay [4] and in assay [7] was “No toxicity” each time.
For the compound `Nc1ncnc2c1cnn2[C@@H]1CC[C@@H](O)[C@H]1O`, the IC50 in assay [8], in assay [9], in [10] and in [11] was over 100 µM throughout. In addition, the Cytotoxic activity entry in assay [2], in assay [3], in [4] and in [7] was “No toxicity” throughout.
For `C[C@@H]1C[C@H](n2ncc3c(N)ncnc32)[C@@H](O)[C@H]1O`, the IC50 in assay [8], in assay [9], in assay [10] and in assay [11] was over 100 µM in each case. The Cytotoxic activity entry in assay [2], in assay [3], in [4] and in assay [7] was “No toxicity” throughout.
On to `Nc1ncnc2c1cnn2[C@@H]1C=C[C@H](O)C1`, for which the IC50 in assay [9] and in assay [11] was over 100 µM each time. Further, the Cytotoxic activity entry in assay [2], in assay [3], in [4] and in assay [7] was “No toxicity” in each case.
Consider `Nc1ncnc2c1cnn2[C@H]1C=C[C@@H](O)C1`, for which the IC50 in [8], in [9], in [10] and in assay [11] was over 100 µM throughout. The Cytotoxic activity entry in assay [2], in assay [3], in assay [4] and in assay [7] was “No toxicity” in each case.
As for `Nc1ncnc2c1cnn2[C@H]1C[C@@H](O)[C@H](O)[C@@H]1O`, the IC50 in [1] came out at 53 µM; in [12] it was 72 µM; in assay [5] it was 44 µM; in assay [6] it was 67 µM. The Cytotoxic activity result in assay [2], in assay [3], in assay [4] and in assay [7] was “No toxicity” in each case.
Consider `Nc1ncnc2c1cnn2[C@H]1CC[C@H](O)[C@@H]1O`, for which the Inhibition in [13] is 37%; in assay [14], 23%. In addition, the Cytotoxic activity result in assay [2], in [3], in assay [4] and in assay [7] was “No toxicity” in each case.
Consider `Nc1ncnc2c1ccn2[C@H]1C[C@@H](O)[C@H](O)[C@@H]1O`, for which the half-maximal inhibitory concentration (IC50) in assay [1] is 0.85 µM; in assay [12], 5.3 µM; in [6] it was 1.55 µM. In addition, the Cytotoxic activity result in assay [2], in [3] and in [4] was “inactive” each time. In addition, in assay [7], the Cytotoxic activity entry was “Non-toxic”.
For the compound `Nc1ncnc2c1cnn2[C@@H]1C=C[C@@H](O)[C@H]1O`, the half-maximal inhibitory concentration (IC50) in assay [8], in assay [9], in [10] and in assay [11] was over 100 µM each time. In addition, the Cytotoxic activity entry in assay [2], in [3], in assay [4] and in assay [7] was “No toxicity” throughout.
On to `Nc1ncnc2c1cnn2[C@H]1C=C[C@H](O)[C@@H]1O`, for which the half-inhibitory concentration (IC50) in [1] and in assay [5] was over 100 µM in each case. Moreover, the Cytotoxic activity result in assay [2], in [3], in [4] and in assay [7] was “No toxicity” in each case.
Turning to `Nc1ncnc2c1cnn2[C@@H]1C[C@H](O)[C@@H](O)[C@H]1O`, the half-inhibitory concentration (IC50) in assay [9] and in assay [11] was over 100 µM each time. Also, the Cytotoxic activity entry in [2], in assay [3], in assay [4] and in [7] was “No toxicity” throughout.

(Values after ChEMBL document CHEMBL1129948, “Synthesis and anti-trypanosomal activity of various 8-aza-7-deaza-5'noraristeromycin derivatives” (J Med Chem, 1997).)
